Key:
CFTR [1] = biological target: CFTR (Homo sapiens, UniProt P13569); experiment: Membrane Potential Dye, Enteroid Assay A; type: cell-based; conditions: for EC50: read-out: Ent. A EC50
Method: Base medium (ADF+++) consisted of Advanced DMEM/Ham's F12, 2 mM Glutamax, 10 mM HEPES, 1 µg/mL penicillin/streptomycin.
Intestinal enteroid maintenance medium (IEMM) consisted of ADF+++, 1× B27 supplement, 1× N2 supplement, 1.25 mM N-acetyl cysteine, 10 mM Nicotinamide, 50 ng/mL hEGF, 10 nM Gastrin, 1 pg/mL hR-spondin-1, 100 ng/mL hNoggin, TGF-b type 1 inhibitor A-83-01, 100 μg/mL Primocin, […] P38 MAPK inhibitor SB202190.
Bath 1 Buffer consisted of 1 mM MgCl2, 160 mM NaCl, 4.5 mM KCl, 10 mM HEPES, 10 mM Glucose, 2 mM CaCl2).
Chloride Free Buffer consisted of 1 mM Magnesium Gluconate, 2 mM Calcium Gluconate, 4.5 mM Potassium Gluconate, 160 mM Sodium Gluconate, 10 mM HEPES, 10 mM Glucose.
Bath1 Dye Solution consisted of Bath 1 Buffer, 0.04% Pluronic F127, […] Methyl Oxonol, 30 μM CaCCinh-A01, 30 μM Chicago Sky Blue.
Chloride Free Dye Solution consisted of Chloride Free Buffer, 0.04% Pluronic F127, 20 μM Methyl Oxonol, 30 μM CaCCinh-A01, 30 μM Chicago Sky Blue.
Chloride Free Dye Stimulation Solution consisted of Chloride Free Dye Solution, 10 μM forskolin, 100 μM IBMX, and 300 nM Compound III.
Human intestinal epithelial enteroid cells were obtained from the Hubrecht Institute for Developmental Biology and Stem Cell Research, Utrecht, The Netherlands and expanded in T-Flasks as previously described (Dekkers J F, Wiegerinck C L, de Jonge H R, Bronsveld I, Janssens H M, de Winter-de Groot K M, Brandsma A M, de Jong N W M, Bijvelds M J C, Scholte B J, Nieuwenhuis E E S, van den Brink S, Clevers H, van der Ent C K, Middendorp S and M Beekman J M. A functional CFTR assay using primary cystic fibrosis intestinal organoids. Nat Med. 2013 July; 19(7):939-45.).
Cells were recovered in cell recovery solution, collected by centrifugation at 650 rpm for 5 min at 4° C., resuspended in TryPLE and incubated for 5 min at 37° C. Cells were then collected by centrifugation at 650 rpm for 5 min at 4° C. and resuspended in IEMM containing 10 μM ROCK inhibitor (RI). The cell suspension was passed through a 40 μm cell strainer and resuspended at 1×10^6 cells/mL in IEMM containing 10 μM RI. Cells were seeded at 5000 cells/well into multi-well plates and incubated for overnight at 37° C., 95% humidity and 5% CO2 prior to assay.
Enteroid cells were incubated with test compound in IEMM for 18-24 hours at 37° C., 95% humidity and 5% CO2. […] Briefly, cells were washed 5 times in Bath 1 Buffer. Bath 1 Dye Solution was added, and the cells were incubated for 25 min at room temperature. Following dye incubation, cells were washed 3 times in Chloride Free Dye Solution. Chloride transport was initiated by addition of Chloride Free Dye Stimulation Solution and the fluorescence signal was read for 15 min. […] Chloride transport was then expressed as a percentage of the chloride transport following treatment with 3 μM (S)—N-((6-aminopyridin-2-yl)sulfonyl)-6-(3-fluoro-5-isobutoxyphenyl)-2-(2,2,4-trimethylpyrrolidin-1-yl)nicotinamide, 3 μM (R)-1-(2,2-difluorobenzo[d][1,3]dioxol-5-yl)-N-(1-(2,3-dihydroxypropyl)-6-fluoro-2-(1-hydroxy-2-methylpropan-2-yl)-1H-indol-5-yl)cyclopropanecarboxamide and 300 nM acute N-[2,4-bis(1,1-dimethylethyl)-5-hydroxyphenyl]-1,4-dihydro-4-oxoquinoline-3-carboxamide triple combination control (% Activity).

CFTR [2] = biological target: T1, CFTR (Homo sapiens, UniProt P13569, DEL508-508); experiment: HBE Assay: Ussing chamber assay of CFTR-mediated short-circuit currents in F508del/MF-HBE cells with 1 μM Ivacaftor; type: cell-based; conditions: 20% human serum; for HBE Activity at 10 μM: single fixed concentration of 10 μM
T1 construct: endogenous in cells; host or cells: primary human bronchial epithelial cells, F508del/MF genotype
Outline: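 F508del/MF-HBE cells at air-liquid interface >14 days were incubated 18-24 h at 37° C with corrector (concentration range or fixed 10 μM) plus 1 μM Ivacaftor in 20% human serum, compounds kept throughout. Ussing chamber, Vhold=0 mV, 37° C, apical amiloride 30 μM; ISC (μA/cm^2) from peak 20 μM forskolin response to steady state after CFTR inhibitor cocktail.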

[3] = with 1 μM Ivacaftor, 18-24 hours

T1 sequence (P13569 with tags, fused parts or gaps DEL508-508): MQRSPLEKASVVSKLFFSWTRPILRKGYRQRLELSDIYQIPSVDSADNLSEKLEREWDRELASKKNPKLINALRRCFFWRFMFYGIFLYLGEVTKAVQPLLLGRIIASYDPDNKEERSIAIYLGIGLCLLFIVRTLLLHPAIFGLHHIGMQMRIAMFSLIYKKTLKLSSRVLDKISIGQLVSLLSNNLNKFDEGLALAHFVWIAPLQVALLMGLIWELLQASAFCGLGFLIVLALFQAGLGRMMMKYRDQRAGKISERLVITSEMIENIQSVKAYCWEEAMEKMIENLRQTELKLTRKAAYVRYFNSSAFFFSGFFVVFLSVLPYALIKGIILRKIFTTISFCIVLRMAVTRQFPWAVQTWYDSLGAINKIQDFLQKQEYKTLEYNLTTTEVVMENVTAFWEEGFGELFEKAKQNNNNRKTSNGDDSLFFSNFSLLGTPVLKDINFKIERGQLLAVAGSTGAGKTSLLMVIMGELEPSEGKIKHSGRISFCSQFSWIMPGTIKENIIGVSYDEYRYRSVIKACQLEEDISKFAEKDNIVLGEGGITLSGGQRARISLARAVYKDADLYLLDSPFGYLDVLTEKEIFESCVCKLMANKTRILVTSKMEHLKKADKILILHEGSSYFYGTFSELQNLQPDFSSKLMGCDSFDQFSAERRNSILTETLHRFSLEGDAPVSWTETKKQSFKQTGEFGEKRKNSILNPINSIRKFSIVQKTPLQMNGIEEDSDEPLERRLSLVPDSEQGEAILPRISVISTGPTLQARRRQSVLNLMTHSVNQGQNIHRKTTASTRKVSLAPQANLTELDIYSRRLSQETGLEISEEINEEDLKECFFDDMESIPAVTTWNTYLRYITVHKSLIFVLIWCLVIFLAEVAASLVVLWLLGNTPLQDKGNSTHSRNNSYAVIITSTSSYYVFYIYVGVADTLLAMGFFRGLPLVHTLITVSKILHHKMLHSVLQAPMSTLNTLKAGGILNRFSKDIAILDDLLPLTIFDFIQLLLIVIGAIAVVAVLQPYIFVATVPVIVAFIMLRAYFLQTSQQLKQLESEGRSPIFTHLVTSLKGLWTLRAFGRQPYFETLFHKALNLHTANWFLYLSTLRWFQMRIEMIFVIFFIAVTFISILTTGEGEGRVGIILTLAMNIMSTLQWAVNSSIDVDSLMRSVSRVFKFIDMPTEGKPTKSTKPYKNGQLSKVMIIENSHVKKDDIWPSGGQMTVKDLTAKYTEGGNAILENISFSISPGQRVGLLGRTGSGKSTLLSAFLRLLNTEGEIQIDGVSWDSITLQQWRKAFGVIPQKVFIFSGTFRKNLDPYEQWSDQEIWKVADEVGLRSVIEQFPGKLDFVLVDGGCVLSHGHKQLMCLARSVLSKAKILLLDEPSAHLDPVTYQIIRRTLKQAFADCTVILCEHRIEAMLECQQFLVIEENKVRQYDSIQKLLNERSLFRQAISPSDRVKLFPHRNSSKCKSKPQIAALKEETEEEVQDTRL
Chain of CFTR (Homo sapiens, UniProt P13569) (P13569 with tags, fused parts or gaps DEL508-508): as above

SMILES | Ent. A Max Activity (CFTR [1]) | EC50 (CFTR [1]) [µM] | EC50 (CFTR [2]; [3]) [µM] | HBE Max Activity (CFTR [2]; [3]) | further results
CC(C)(C)c1c2nc(nc1-c1ccccc1)NS(=O)(=O)c1cccc(c1)C(=O)N1Cc3ccccc3C(C1)O2 (stereo not shown) [Compound 46] | + (+ is <30%) | – | – | – | –
CCc1c2nc(nc1-c1ccccc1)NS(=O)(=O)c1cccc(c1)NC(=O)c1cccc(c1)O2 [Compound 30] | + (+ is <30%) | – | – | – | –
Cc1ccccc1-c1nc2nc(c1C(F)(F)F)OC1CN(Cc3ccccc31)C(=O)c1cccc(c1)S(=O)(=O)N2 (stereo not shown) [Compound 43] | +++ (+++ is >60%) | < 1 | – | – | –
Cc1ccccc1-c1nc2nc(c1C(C)(C)C)OC1CN(Cc3ccccc31)C(=O)c1cccc(c1)S(=O)(=O)N2 (stereo not shown) [Compound 39, 13-tert-Butyl-12-(o-tolyl)-8,8-dioxo-15-oxa-8λ^6-thia-1,9,11,25-tetrazapentacyclo[14.7.1.13,7.110,14.017,22]hexacosa-3,5,7(26),10(25),11,13,17(22),18,20-nonaen-2-one] | ++ (++ is 30-60%) | < 1 | – | – | –
CCOc1ccccc1-c1nc2nc(c1CC)Oc1cccc(c1)C(=O)Nc1cccc(c1)S(=O)(=O)N2 [Compound 24] | + (+ is <30%) | 1 to 3 | – | – | –
CC(C)Oc1cccc(-c2nc3nc(c2C(C)(C)C)OC2CN(Cc4ccccc42)C(=O)c2cccc(c2)S(=O)(=O)N3)c1 (stereo not shown) [Compound 44] | + (+ is <30%) | – | – | – | –
CC(C)CCc1ccccc1-c1nc2nc(c1C(F)(F)F)OC1CN(Cc3ccccc31)C(=O)c1cccc(c1)S(=O)(=O)N2 (stereo not shown) [Compound 41] | +++ (+++ is >60%) | < 1 | – | – | –
CCc1c2nc(nc1-c1cnccc1C)NS(=O)(=O)c1cccc(c1)NC(=O)c1cccc(c1)O2 [Compound 21] | + (+ is <30%) | – | – | – | –
CCc1c2nc(nc1-c1c(C)ccc(OCCC(C)C)c1C)NS(=O)(=O)c1cccc(c1)NC(=O)c1cccc(c1)O2 [Compound 9] | ++ (++ is 30-60%) | < 1 | – | – | –
CCc1c2nc(nc1-c1ccccc1OC)NS(=O)(=O)c1cccc(c1)NC(=O)c1cccc(c1)O2 [Compound 23] | ++ (++ is 30-60%) | 3 to 30 | – | – | –
CC(C)Oc1cccc(-c2nc3nc(c2C(F)(F)F)OC2CN(Cc4ccccc42)C(=O)c2cccc(c2)S(=O)(=O)N3)c1 (stereo not shown) [Compound 42] | + (+ is <30%) | < 1 | – | – | –
CCc1c2nc(nc1-c1cccc(OCC(C)C)c1)NS(=O)(=O)c1cccc(c1)NC(=O)c1cccc(c1)O2 [Compound 27] | + (+ is <30%) | < 1 | – | – | –
CCc1c2nc(nc1-c1ccncc1C)NS(=O)(=O)c1cccc(c1)NC(=O)c1cccc(c1)O2 [Compound 22] | + (+ is <30%) | – | – | – | –
CCc1c2nc(nc1-c1cccnc1OC)NS(=O)(=O)c1cccc(c1)NC(=O)c1cccc(c1)O2 [Compound 20] | + (+ is <30%) | – | – | – | –
CCc1c2nc(nc1-c1cccc(OC(C)C)c1)NS(=O)(=O)c1cccc(c1)NC(=O)c1cccc(c1)O2 [Compound 28] | + (+ is <30%) | 1 to 3 | – | – | –
Cc1c2nc(nc1-c1ccccc1C(C)C)NS(=O)(=O)c1cccc(c1)C(=O)N(Cc1ccc(N3CCOCC3)cn1)[C@H](CC(C)(C)C)CO2 [Compound 182] | – | – | < 1 | +++ (+++ is >600%) | –
Cc1cccc(C2CC2)c1-c1nc2nc(c1C)OC[C@@H](CC(C)(C)C)N(Cc1ccc(N3CCOCC3)cn1)C(=O)c1cccc(c1)S(=O)(=O)N2 (atropisomer, axis not shown) [Compound 228] | – | – | < 1 | +++ (+++ is >600%) | –
Cc1cccc(CC2CCOCC2)c1-c1nc2nc(c1C)OC[C@@H](CC(C)(C)C)N(Cc1ncc(N3CCC(C)(C)C3)cn1)C(=O)c1cccc(c1)S(=O)(=O)N2 (atropisomer, axis not shown) [Compound 271] | – | – | – | – | HBE Activity at 10 μM (CFTR [2]; with 1 μM Ivacaftor): +++ (+++ is >600%)
Cc1cccc(CC2CCCCC2)c1-c1nc2nc(c1C)OC[C@@H](CC(C)(C)C)N(Cc1ncccc1N1CCOCC1)C(=O)c1cccc(c1)S(=O)(=O)N2 (atropisomer, axis not shown) [Compound 309] | – | – | < 1 | +++ (+++ is >600%) | –
COCCN(C)c1cnc(CN2C(=O)c3cccc(c3)S(=O)(=O)Nc3nc(c(C)c(-c4c(C)cccc4CC4CCCCC4)n3)OC[C@H]2CC(C)(C)C)cn1 [Compound 278] | – | – | 1 to 3 | +++ (+++ is >600%) | –
Cc1cccc(C)c1-c1nc2nc(c1C)OC[C@@H](CC(C)C)N(Cc1ncc(N3CCC(C)(C)CC3)cn1)C(=O)c1cccc(c1)S(=O)(=O)N2 [Compound 198] | – | – | < 1 | +++ (+++ is >600%) | –
Cc1cccc(C)c1-c1nc2nc(c1C)OC[C@@H](CC(C)(C)C)N(c1cnn(C)c1Br)C(=O)c1cccc(c1)S(=O)(=O)N2 [Compound 56, (11R)-12-(5-Bromo-1-methyl-pyrazol-4-yl)-6-(2,6-dimethylphenyl)-11-(2,2-dimethylpropyl)-7-methyl-2,2-dioxo-9-oxa-2λ^6-thia-3,5,12,19-tetrazatricyclo[12.3.1.14,8]nonadeca-1(18),4(19),5,7,14,16-hexaen-13-one] | – | – | < 1 | +++ (+++ is >600%) | –
Cc1cccc(CC2CCCC2)c1-c1nc2nc(c1C)OC[C@@H](CC(C)(C)C)N(Cc1ncc(OC(C)C)cn1)C(=O)c1cccc(c1)S(=O)(=O)N2 (atropisomer, axis not shown) [Compound 266] | – | – | < 1 | +++ (+++ is >600%) | –
CCc1cccc(C)c1-c1nc2nc(c1C)OC[C@@H](CC(C)(C)C)N(Cc1ccc(N3CCOCC3)cn1)C(=O)c1cccc(c1)S(=O)(=O)N2 (atropisomer, axis not shown) [Compound 286] | – | – | < 1 | +++ (+++ is >600%) | –
CCOc1cnc(CN2C(=O)c3cccc(c3)S(=O)(=O)Nc3nc(c(C)c(-c4c(C)cccc4CC(C)C)n3)OC[C@H]2CC(C)(C)C)nc1 (atropisomer, axis not shown) [Compound 339] | – | – | – | – | EC50 (CFTR [2]; range of concentrations with 1 μM Ivacaftor, 18-24 hours): < 1 µM; Emax (CFTR [2]; with 1 μM Ivacaftor, 18-24 hours, compared to known Vertex corrector with 18 μM Tezacaftor and 1 μM Ivacaftor, read-out: HBE Max activity (%)): > 60%
Cc1cccc(CC2CCCCC2)c1-c1nc2nc(c1C)OC[C@@H](CC(C)(C)C)NC(=O)c1cccc(c1)S(=O)(=O)N2 (atropisomer, axis not shown) [Compound 312] | – | – | < 1 | ++ (++ is 30-60%) | –
Cc1cccc(CC(C)C)c1-c1nc2nc(c1C)OC[C@@H](CC(C)(C)C)N(Cc1cccc(N(C)C(C)C)n1)C(=O)c1cccc(c1)S(=O)(=O)N2 (atropisomer, axis not shown) [Compound 235] | – | – | < 1 | +++ (+++ is >600%) | –
COCCN(C)c1cnc(CN2C(=O)c3cccc(c3)S(=O)(=O)Nc3nc(c(C)c(-c4c(C)cccc4CC(C)C)n3)OC[C@H]2CC(C)(C)C)nc1 (atropisomer, axis not shown) [Compound 293] | – | – | – | – | HBE Activity at 10 μM (CFTR [2]; with 1 μM Ivacaftor): +++ (+++ is >600%)
Cc1cccc(CC2CCCC2)c1-c1nc2nc(c1C)OC[C@@H](CC(C)(C)C)N(Cc1cccc(N3CCC[C@H]3C)n1)C(=O)c1cccc(c1)S(=O)(=O)N2 (atropisomer, axis not shown) [Compound 269] | – | – | – | – | HBE Activity at 10 μM (CFTR [2]; with 1 μM Ivacaftor): +++ (+++ is >600%)

Source: patent US20230374038A1, “MODULATORS OF CYSTIC FIBROSIS TRANSMEMBRANE CONDUCTANCE REGULATOR” (VERTEX PHARMACEUTICALS INCORPORATED, priority 2020, published 2023)
